Laboratory results from publication PMC9959553, “Promising Antifungal Molecules against Mucormycosis Agents Identified from Pandemic Response Box®: In Vitro and In Silico Analyses” (Journal of Fungi, 2023).

These compounds were tested on R. oryzae UCP1295 (assay: Screening of the Pandemic Response Box library at 5 µM). Settings: 48 h, Table S1, mean of the four values.
Assay type: cell-based, Rhizopus oryzae
Procedure, shortened: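 Growth inhibition was read at 600 nm after conidia (2 × 10^5/mL) grew 48 h at 37 °C, 5% CO2, with 5 μM compound in glucose-supplemented (2%), MOPS-buffered RPMI (pH 7.2). Controls were posaconazole at 5 μM and 1% DMSO. The selection cut-off was at least 60% inhibition.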

Compound | % of growth inhibition, Mean
COc1ccc2cc3[n+](cc2c1OCCN(CCn1cncn1)Cc1ccc(F)cc1F)CCc1cc2c(cc1-3)OCO2 [MMV1593540] | -0.6%
Nc1nc(Nc2ccc3nc(-c4ccc(F)cc4)cc(N)c3c2)cc(-c2ccccc2)n1 [MMV1593541] | -21.7%
OCCCCn1cnc2c(O)nc(NCc3ccc(Cl)c(Cl)c3)nc21 [MMV1593542] | -14.0%
COc1cc(C(C(=O)NC2CCCCC2)N(C(=O)Cc2c[nH]c3ccccc23)c2ccc(C(C)C)cc2)cc(OC)c1OC (centres unmarked) [MMV1593544] | -2.6%
CC1(C)C[C@H]1C(=O)N/C(=C\CCCCSC[C@@H](N)C(=O)O)C(=O)O.[Na+] [MMV1613559] | -16.6%
NC(=O)[C@@H]1CC[C@@H]2CN1C(=O)N2OS(=O)(=O)O [MMV1613560] | -12.6%
Cc1ncc([N+](=O)[O-])n1CC(O)CN1CCOCC1 (centres unmarked) [MMV1613562] | -0.4%
COc1cc(Cc2cnc(N)nc2N)c2c(c1OC)OC(C1CC1)C=C2 (centres unmarked) [MMV1613563] | -6.9%
C=C[C@]1(C)C[C@@H](OC(=O)CS[C@@H]2C[C@H]3CC[C@@H](C2)N3C)[C@]2(C)[C@H](C)CC[C@]3(CCC(=O)[C@H]32)[C@@H](C)[C@@H]1O [MMV1633674] | -19.9%
CC(C)c1cc2c(cc1S(=O)(=O)O)[C@@]1(C)CCC[C@@](C)(C(=O)O)[C@@H]1CC2 [MMV1633675] | -25.5%
Nc1nc2c(ncn2[C@@H]2O[C@H](CO)[C@@H](O)[C@H]2F)c(=O)[nH]1 [MMV1633677] | -10.0%
CC[C@@]1(O)C(=O)OCc2c1cc1n(c2=O)Cc2cc3c(CN(C)C)c(O)ccc3nc2-1.Cl [MMV1633678] | -10.2%
CCc1ccccc1OCCN1CCCCCC1 [MMV1633962] | -12.2%
O=C(O)/C=C/C=C/c1cccc(Oc2cc(Cl)cc(Cl)c2)c1 [MMV1633963] | 12.3%
O=C(NCCN1CCCCC1)c1cccc(C(F)(F)F)c1 [MMV1633964] | -2.0%
COc1c(NC(=O)[C@H]2CC[C@@H](COc3ccc([N+](=O)[O-])cc3)CC2)c(F)cc2c(=O)c(C(=O)O)cn(C3CC3)c12 [MMV1633965] | -11.6%
Nc1nnnn1CCOc1c2[nH]c3ccc(Cl)cc3c2cc2c1[nH]c1ccc(Cl)cc12 [MMV1633966] | -30.2%
CCOC(=O)Nc1cc(NC(C)CC(C)CN(CC)CC)c2nc(-c3ccccc3)c(-c3ccccc3)nc2n1 (centres unmarked) [MMV1633967] | -28.6%
Nc1nc(-c2ccccc2)nc2[nH]nc(Nc3ccc(C(F)(F)F)cc3)c12 [MMV1633968] | 4.3%
O=C(O)c1ccc(-c2ccc(O[C@H]3O[C@H](CO)[C@@H](O)[C@H](O)[C@@H]3O)cc2)cc1 [MMV1633970] | -12.3%
CCOc1noc2cc(OCCC3CCN(c4ccc(C)nn4)CC3)ccc12 [MMV1634071] | -15.0%
CCC(C)(C)c1ccc(CC(C)CN2C[C@@H](C)O[C@@H](C)C2)cc1.Cl (some centres unmarked) [MMV1634358] | -26.0%
CN(C/C=C/C#CC(C)(C)C)Cc1cccc2ccccc12 [MMV1634359] | -42.5%
O=C1c2cccc3cccc(c23)C(=O)N1CC1CO1 (centres unmarked) [MMV1634360] | -18.1%
N[C@H]1CCC[C@H]1C(=O)O [MMV1634361] | -8.8%
C[C@@H](c1nc(-c2ccc(C#N)cc2)cs1)[C@](O)(Cn1cncn1)c1ccc(F)cc1F [MMV1634362] | -36.2%
OB1OCc2cc(Cl)ccc21 [MMV1634363] | -17.9%

Compound | % of growth inhibition, Mean
CCc1cc(Nc2cc(=O)n(CCN3CCN(C(=O)c4ccccc4)CC3)c(=O)[nH]2)ccc1C [MMV1634383] | -3.9%
CCN(CC)S(=O)(=O)c1ccc(Cl)c(C(=O)Nc2sc3c(c2C#N)CCCC3)c1 [MMV1634384] | -5.0%
Nc1ccc(-c2nc3cc(C(F)(F)F)ccc3n2C23CC4CC(CC(C4)C2)C3)cc1 [MMV1634385] | -6.2%
O[C@@](Cn1cnnn1)(c1ccc(F)cc1F)C(F)(F)c1ccc(-c2ccc(OCC(F)(F)F)cc2)cn1 [MMV1634386] | -15.2%
CC(C)(C)c1ccc(OCCn2nc(C(=O)O)c3ccccc3c2=O)cc1 [MMV1634387] | -15.4%
CC(C)N(c1cc(-c2ccccc2)sc1C(=O)O)C(=O)[C@H]1CC[C@H](C)CC1 [MMV1634388] | -4.7%
Nc1nc(C(F)(F)F)cc2c1[nH]c(=O)n2Cc1ccccc1 [MMV1634389] | 10.3%
CCNC(=O)Nc1cc2c(-c3ccnc(C)c3)ccc(CNC(=O)OC)c2cn1 [MMV1634390] | -15.7%
Cn1cc(NC(=O)c2cc(NC(=O)c3ccc(/C=C/c4cnc5ccccc5c4)cc3)cn2C)cc1C(=O)NCCN1CCOCC1 [MMV1634391] | -17.4%
CCCCc1ccc(-c2nc(C)c(C(=O)OC)s2)cc1 [MMV1634392] | -3.4%
CC(C)(C)c1ccc(C(Cn2cccc(C(F)(F)F)c2=O)NC2Cc3ccccc3C2)cc1 (centres unmarked) [MMV1634393] | -0.4%
Cc1ccc(N2CCC(CCOc3ccc(S(C)(=O)=O)cc3)CC2)nn1 [MMV1634394] | 3.3%
CCc1c(O)nc2ccc(F)cc2c1OCC1CCC1 [MMV1634395] | -20.7%
O=C(c1nc2c(C(F)(F)F)cc(C3CC3)cn2c1Cl)N1CCN([C@H]2CC[C@H](O)CC2)C(=O)C1 [MMV1634396] | -11.9%
COc1ccc(CNC(=O)C2CCN(C(C)c3cccc4ccccc34)CC2)cc1 (centres unmarked) [MMV1634397] | -12.7%
CCOc1ccc(/C=N/NC(=O)C2CC2c2ccc(C(C)(C)C)cc2)cc1OCC (centres unmarked) [MMV1634398] | 4.7%
Cc1nc2ccc(Oc3ccccc3)cc2c2c1CCN2CCc1ccccc1 [MMV1634399] | -16.3%
Cc1ccc(C)c(OCCCCCCN2C[C@H](O)[C@@H](O)[C@H](O)[C@H]2CO)c1 [MMV1634401] | 10.8%
NC(N)=NCCCCC(=O)Nc1cc(C(F)(F)F)cc(NC(=O)c2cc(C(=O)Nc3cc(C(F)(F)F)cc(NC(=O)CCCCN=C(N)N)c3O[C@@H]3CCNC3)ncn2)c1O[C@@H]1CCNC1 [MMV1634402] | -4.8%
CS(=O)(=O)c1ccc(Oc2ccc(Cl)cc2)cc1 [MMV1634404] | 4.1%
O=C(/C(=C/c1ccc(Cl)cc1Cl)n1ccnc1)c1ccc(Cl)cc1 [MMV1634491] | -15.1%
Clc1cc(Cl)c2c(c1)CCc1ccccc1C2n1ccnc1 (centres unmarked) [MMV1634492] | -30.6%
Cc1ccc(Oc2ccccc2-c2csc(N=C3NCCCN3)n2)c(C)c1 [MMV1634493] | -30.7%
CNCC(=O)OCc1cccnc1N(C)C(=O)OC(C)[n+]1cnn(C[C@](O)(c2cc(F)ccc2F)[C@@H](C)c2nc(-c3ccc(C#N)cc3)cs2)c1 (some centres unmarked) [MMV1634494] | -14.8%
CCc1cc(CCCOc2c(C)cc(-c3noc(C(F)(F)F)n3)cc2C)on1 [MMV1634556] | 10.0%
COc1cc(C2C3=C(CC(C)(C)CC3=O)Nc3ccccc3N2C(C)=O)ccc1OCc1ccccc1 (centres unmarked) [MMV1634557] | -15.9%
